Assay: Safety and tolerability (adverse events), Study 1 SAD in healthy participants
Format: in vivo, human
Conditions: n = 6

SMILES: Cc1c(-c2c(F)cc(C(N)=O)c3[nH]c4c(c23)CC[C@H](C(C)(C)O)C4)cccc1-n1c(=O)c2cccc(F)c2n(C)c1=O [BMS-986142, 6-fluoro-5-(R)-(3-(S)-(8-fluoro-1-methyl-2,4-dioxo-1,2-dihydroquinazolin-3(4H)-yl)-2-methylphenyl)-2-(S)-(2-hydroxypropan-2-yl)-2,3,4,9-tetrahydro-1H-carbazole-8-carboxamide]
- AE SOC: Gastrointestinal Disorders (SAD 5 mg): 0 n (%)
- AE SOC: General disorders and administration site conditions (SAD 5 mg): 0 n (%)
- AE SOC: Infections and infestations (SAD 5 mg): 0 n (%)
- AE SOC: Injury, poisoning and procedural complications (SAD 5 mg): 0 n (%)
- AE SOC: Musculoskeletal and connective tissue disorders (SAD 5 mg): 0 n (%)
- AE SOC: Nervous system disorders (SAD 5 mg): 0 n (%)
- AE SOC: Renal and urinary disorders (SAD 5 mg): 0 n (%)
- AE SOC: Respiratory, thoracic and mediastinal disorders (SAD 5 mg): 0 n (%)
- AE: Aphthous stomatitis (SAD 5 mg): 0 n (%)
- AE: Chest pain (SAD 5 mg): 0 n (%)
- AE: Contusion (SAD 5 mg): 0 n (%)
- AE: Cough (SAD 5 mg): 0 n (%)
- AE: Diarrhoea (SAD 5 mg): 0 n (%)
- AE: Dizziness (SAD 5 mg): 0 n (%)
- AE: Headache (SAD 5 mg): 0 n (%)
- AE: Lip Dry (SAD 5 mg): 0 n (%)
- AE: Muscle spasms (SAD 5 mg): 0 n (%)
- AE: Nausea (SAD 5 mg): 0 n (%)
- AE: Paraesthesia (SAD 5 mg): 0 n (%)
- AE: Polyuria (SAD 5 mg): 0 n (%)
- AE: Syncope (SAD 5 mg): 0 n (%)
- AE: Tension headache (SAD 5 mg): 0 n (%)
- AE: Thermal burn (SAD 5 mg): 0 n (%)
- AE: Toothache (SAD 5 mg): 0 n (%)
- AE: Upper respiratory tract infection (SAD 5 mg): 0 n (%)
- AE: Vomiting (SAD 5 mg): 0 n (%)
- Total participants with an event (SAD 5 mg): 0 n (%)
- AE SOC: Gastrointestinal Disorders (SAD 15 mg): 1 (16.7) n (%)
- AE SOC: General disorders and administration site conditions (SAD 15 mg): 0 n (%)
- AE SOC: Infections and infestations (SAD 15 mg): 0 n (%)
- AE SOC: Injury, poisoning and procedural complications (SAD 15 mg): 0 n (%)
- AE SOC: Musculoskeletal and connective tissue disorders (SAD 15 mg): 0 n (%)
- AE SOC: Nervous system disorders (SAD 15 mg): 0 n (%)
- AE SOC: Renal and urinary disorders (SAD 15 mg): 0 n (%)
- AE SOC: Respiratory, thoracic and mediastinal disorders (SAD 15 mg): 0 n (%)
- AE: Aphthous stomatitis (SAD 15 mg): 1 (16.7) n (%)
- AE: Chest pain (SAD 15 mg): 0 n (%)
- AE: Contusion (SAD 15 mg): 0 n (%)
- AE: Cough (SAD 15 mg): 0 n (%)
- AE: Diarrhoea (SAD 15 mg): 0 n (%)
- AE: Dizziness (SAD 15 mg): 0 n (%)
- AE: Headache (SAD 15 mg): 0 n (%)
- AE: Lip Dry (SAD 15 mg): 0 n (%)
- AE: Muscle spasms (SAD 15 mg): 0 n (%)
- AE: Nausea (SAD 15 mg): 0 n (%)
- AE: Paraesthesia (SAD 15 mg): 0 n (%)
- AE: Polyuria (SAD 15 mg): 0 n (%)
- AE: Syncope (SAD 15 mg): 0 n (%)
- AE: Tension headache (SAD 15 mg): 0 n (%)
- AE: Thermal burn (SAD 15 mg): 0 n (%)
- AE: Toothache (SAD 15 mg): 0 n (%)
- AE: Upper respiratory tract infection (SAD 15 mg): 0 n (%)
- AE: Vomiting (SAD 15 mg): 0 n (%)
- Total participants with an event (SAD 15 mg): 1 (16.7) n (%)
- AE SOC: Gastrointestinal Disorders (SAD 50 mg): 0 n (%)
- AE SOC: General disorders and administration site conditions (SAD 50 mg): 0 n (%)
- AE SOC: Infections and infestations (SAD 50 mg): 1 (16.7) n (%)
- AE SOC: Injury, poisoning and procedural complications (SAD 50 mg): 1 (16.7) n (%)
- AE SOC: Musculoskeletal and connective tissue disorders (SAD 50 mg): 1 (16.7) n (%)
- AE SOC: Nervous system disorders (SAD 50 mg): 2 (33.3) n (%)
- AE SOC: Renal and urinary disorders (SAD 50 mg): 0 n (%)
- AE SOC: Respiratory, thoracic and mediastinal disorders (SAD 50 mg): 0 n (%)
- AE: Aphthous stomatitis (SAD 50 mg): 0 n (%)
- AE: Chest pain (SAD 50 mg): 0 n (%)
- AE: Contusion (SAD 50 mg): 1 (16.7) n (%)
- AE: Cough (SAD 50 mg): 0 n (%)
- AE: Diarrhoea (SAD 50 mg): 0 n (%)
- AE: Dizziness (SAD 50 mg): 0 n (%)
- AE: Headache (SAD 50 mg): 2 (33.3) n (%)
- AE: Lip Dry (SAD 50 mg): 0 n (%)
- AE: Muscle spasms (SAD 50 mg): 1 (16.7) n (%)
- AE: Nausea (SAD 50 mg): 0 n (%)
- AE: Paraesthesia (SAD 50 mg): 0 n (%)
- AE: Polyuria (SAD 50 mg): 0 n (%)
- AE: Syncope (SAD 50 mg): 0 n (%)
- AE: Tension headache (SAD 50 mg): 0 n (%)
- AE: Thermal burn (SAD 50 mg): 1 (16.7) n (%)
- AE: Toothache (SAD 50 mg): 0 n (%)
- AE: Upper respiratory tract infection (SAD 50 mg): 1 (16.7) n (%)
- AE: Vomiting (SAD 50 mg): 0 n (%)
- Total participants with an event (SAD 50 mg): 2 (33.3) n (%)
- AE SOC: Gastrointestinal Disorders (SAD 100 mg): 1 (16.7) n (%)
- AE SOC: General disorders and administration site conditions (SAD 100 mg): 0 n (%)
- AE SOC: Infections and infestations (SAD 100 mg): 0 n (%)
- AE SOC: Injury, poisoning and procedural complications (SAD 100 mg): 0 n (%)
- AE SOC: Musculoskeletal and connective tissue disorders (SAD 100 mg): 0 n (%)
- AE SOC: Nervous system disorders (SAD 100 mg): 1 (16.7) n (%)
- AE SOC: Renal and urinary disorders (SAD 100 mg): 1 (16.7) n (%)
- AE SOC: Respiratory, thoracic and mediastinal disorders (SAD 100 mg): 0 n (%)
- AE: Aphthous stomatitis (SAD 100 mg): 0 n (%)
- AE: Chest pain (SAD 100 mg): 0 n (%)
- AE: Contusion (SAD 100 mg): 0 n (%)
- AE: Cough (SAD 100 mg): 0 n (%)
- AE: Diarrhoea (SAD 100 mg): 0 n (%)
- AE: Dizziness (SAD 100 mg): 0 n (%)
- AE: Headache (SAD 100 mg): 0 n (%)
- AE: Lip Dry (SAD 100 mg): 0 n (%)
- AE: Muscle spasms (SAD 100 mg): 0 n (%)
- AE: Nausea (SAD 100 mg): 0 n (%)
- AE: Paraesthesia (SAD 100 mg): 0 n (%)

Reference: PMC5423977, “Safety, pharmacokinetics, and pharmacodynamics of BMS-986142, a novel reversible BTK inhibitor, in healthy participants” (European Journal of Clinical Pharmacology, 2017)
